Experimental data taken from PubChem BioAssay (NCI).
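Cells were grown in 96-well plates and exposed to each compound for 48 hours at five concentrations; endpoints were interpolated linearly between bracketing concentrations, or set to the highest concentration if not reached. GI50 = concentration required for 50% inhibition of growth. TGI is the concentration that stops growth completely.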

Columns and labels:
Test in all cases: NCI anticancer screen, dose series, 48 h
[1] = system: HT29 colon
[2] = system: RPMI-8226 leukemia
[3] = system: HCT-116 colon
[4] = system: LOX IMVI melanoma
[5] = system: SNB-75 CNS
[6] = system: CAKI-1 renal
[7] = system: HL-60(TB) leukemia
[8] = system: SF-268 CNS
[9] = system: SNB-19 CNS
[10] = system: SF-539 CNS

| SMILES | GI50 [1] | TGI [1] | GI50 [2] | TGI [2] | GI50 [3] | TGI [3] | GI50 [4] | TGI [4] | GI50 [5] | TGI [5] | GI50 [6] | TGI [6] | GI50 [7] | TGI [7] | GI50 [8] | TGI [8] | GI50 [9] | TGI [9] | GI50 [10] | TGI [10] |
| --- | --- | --- | --- | --- | --- | --- | --- | --- | --- | --- | --- | --- | --- | --- | --- | --- | --- | --- | --- | --- |
| O=C(Nc1ccc(Oc2ccc(F)cc2)cc1)[C@@H]1C[C@@H](Cc2ccc(F)cc2)CN1C(=O)Cn1ccnn1 | 4.2 µM | 15 µM | 3.74 µM | 26.4 µM | 4.79 µM | 17.3 µM | 7.28 µM | 22.2 µM | 4.03 µM | 31.8 µM | 11.5 µM | 51.7 µM | 3.7 µM | 17.8 µM | 8.55 µM | 33.8 µM | 9.45 µM | > 100 µM | 10.6 µM | 26.6 µM |
| NC1NC=NC2C1N=CN2C1OC(CO)C2[O][Sn][O]C21 (stereo not given) | > 100 µM | > 100 µM | > 100 µM | > 100 µM | > 100 µM | > 100 µM | > 100 µM | > 100 µM | > 100 µM | > 100 µM | > 100 µM | > 100 µM | > 100 µM | > 100 µM | > 100 µM | > 100 µM | > 100 µM | > 100 µM | > 100 µM | > 100 µM |
| O=C1/C(=C/c2ccc(Cl)c(Cl)c2)CN(C(=O)C(Cl)Cl)C/C1=C\c1ccc(Cl)c(Cl)c1 | 0.071 µM | 2.07 µM | 0.0285 µM | 0.485 µM | 0.0315 µM | 0.12 µM | 0.0362 µM | 0.136 µM | 0.174 µM | 0.484 µM | 0.244 µM | 0.826 µM | 0.198 µM | 1.05 µM | 0.243 µM | 1.14 µM | 0.11 µM | 0.306 µM | 0.184 µM | 0.444 µM |
